Source: patent US20240287138A1, “CYCLIC PEPTIDES FOR INHIBITING TNF RECEPTOR 1 ACTIVITY” (Merck Sharp & Dohme LLC, priority 2023, published 2024)
Numbered stars: 1 amine (or outer) side, 2 acyl side, 3 side chain; on linkers, the order of the positions; unused ones are H or OH. Bridge positions count the residues as written; N and C are the ends. Square brackets hold non-standard residues; d marks the D form. Peptide text beside a SMILES is read from it. Trp(βS-Me,7-OMe) = COc1cccc2c([C@H](C)[C@H](N)C(=O)O)c[nH]c12; Phe(3R-OH) = O=C([C@@H](N[*:1])[C@H](O[*:3])c1ccccc1)[*:2]; dPro(trans-4-NMe3+) = C[N+](C)(C)[C@@H]1CN[C@@H](C(=O)O)C1; Trp(1-CH2COOH) = N[C@@H](Cc1cn(CC(=O)O)c2ccccc12)C(=O)O; X24 = O=C(O)c1ccc([C@@H](O)[C@H](N[*:1])C(=O)[*:2])cc1; Phe(4-SO2NH2) = N[C@@H](Cc1ccc(S(N)(=O)=O)cc1)C(=O)O; Trp(7-CN) = N#Cc1cccc2c(C[C@H](N)C(=O)O)c[nH]c12; Trp(7-Cl) = N[C@@H](Cc1c[nH]c2c(Cl)cccc12)C(=O)O; Phe(4-CONH2) = NC(=O)c1ccc(C[C@H](N)C(=O)O)cc1; Phe(4-COOH) = N[C@@H](Cc1ccc(C(=O)O)cc1)C(=O)O; Trp(7-aza) = N[C@@H](Cc1c[nH]c2ncccc12)C(=O)O; dPro(cis-4-NH2) = N[C@H]1CN[C@@H](C(=O)O)C1; Pip(5R-OH) = O=C(O)[C@@H]1CC[C@@H](O)CN1; X1 = O=C([C@@H]1CC[C@H](N[*:1])C1)[*:2]; Gly(N(CH2)3COOH) = O=C(O)CCCNCC(=O)O; Pip(4-aza) = O=C(O)[C@@H]1CNCCN1; 4Pal = N[C@@H](Cc1ccncc1)C(=O)O; NMeE = CN[C@@H](CCC(=O)O)C(=O)O; dHyp = O=C(O)[C@H]1C[C@H](O)CN1; Pip = O=C(O)[C@@H]1CCCCN1; αMeS = C[C@](N)(CO)C(=O)O; Nle = CCCC[C@H](N)C(=O)O; Sar = CNCC(=O)O

Target: T1, TNFα-induced NF-κB signal transduction pathway (TNFR1 signaling) in THP-1 cells (Homo sapiens, UniProt P19438)
T1 sequence (P19438 30-455): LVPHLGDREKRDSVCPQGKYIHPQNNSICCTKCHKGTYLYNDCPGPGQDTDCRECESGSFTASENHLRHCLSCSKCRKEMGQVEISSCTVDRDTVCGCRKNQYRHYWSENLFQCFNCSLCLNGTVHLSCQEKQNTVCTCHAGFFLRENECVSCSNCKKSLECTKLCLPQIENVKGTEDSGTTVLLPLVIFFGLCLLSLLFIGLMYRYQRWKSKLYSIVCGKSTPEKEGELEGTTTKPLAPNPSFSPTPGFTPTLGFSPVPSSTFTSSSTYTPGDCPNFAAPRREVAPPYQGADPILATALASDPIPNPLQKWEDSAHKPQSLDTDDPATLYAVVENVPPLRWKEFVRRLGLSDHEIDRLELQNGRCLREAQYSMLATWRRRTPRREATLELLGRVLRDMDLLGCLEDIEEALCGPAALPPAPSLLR
Assay: THP-1 Lucia NF-κB reporter cell assay, inhibition of TNFα-induced NF-κB signaling
Assay type: cell-based
Details: THP-1 NF-κB Lucia reporter cells, 10 ng/mL TNFα, 16-18 h, secreted luciferase; read-out: THP-1 IC50
Outline: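 Macrocyclic peptides were preincubated 1 h at 37 °C with THP-1 NF-κB-Lucia reporter cells (20,000 cells/well) in antibiotic-free RPMI 1640/10% FBS, then stimulated with 10 ng/mL human TNFα overnight (16-18 h). Secreted luciferase in supernatant was read by luminescence; IC50 from 4-parameter logistic fits.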

| SMILES | IC50 |
| --- | --- |
| CCCC[C@@H]1NC(=O)[C@@H]2CC[C@@H](C2)NC(=O)[C@H]([C@@H](C)c2c[nH]c3c(OC)cccc23)NC(=O)CN(C)C(=O)[C@H](Cc2ccc(C(N)=O)cc2)NC(=O)[C@H](Cc2ccc(S(N)(=O)=O)cc2)NC(=O)[C@](C)(CO)NC(=O)[C@H](Cc2c[nH]c3c(C#N)cccc23)NC(=O)[C@H](Cc2ccc(C(=O)O)cc2)NC(=O)[C@H](CC(N)=O)NC(=O)[C@H]2C[C@H]([N+](C)(C)C)CN2C(=O)[C@H](Cc2cn(CC(=O)O)c3ccccc23)NC(=O)[C@@H]2CC[C@@H](O)CN2C(=O)[C@H](Cc2ccncc2)NC1=O [SEQ ID NO. 9] (cyclo([4Pal][Pip(5R-OH)][Trp(1-CH2COOH)][dPro(trans-4-NMe3+)]N[Phe(4-COOH)][Trp(7-CN)][αMeS][Phe(4-SO2NH2)][Phe(4-CONH2)][Sar][Trp(βS-Me,7-OMe)][X1][Nle])) | 0.6 nM |
| CCCC[C@@H]1NC(=O)CSC[C@@H](C(N)=O)NC(=O)[C@H]([C@@H](C)c2c[nH]c3c(OC)cccc23)NC(=O)CN(C)C(=O)[C@H](Cc2ccc(O)cc2)NC(=O)[C@H](Cc2ccc(C(N)=O)cc2)NC(=O)[C@](C)(CO)NC(=O)[C@H](Cc2c[nH]c3c(Cl)cccc23)NC(=O)[C@H](Cc2ccncc2)NC(=O)[C@H](CC(N)=O)NC(=O)[C@H]2C[C@@H](N)CN2C(=O)[C@H](Cc2c[nH]c3ncccc23)NC(=O)[C@@H]2CNCCN2C(=O)[C@H](Cc2ccncc2)NC1=O [SEQ ID NO. 219] ({CH2CO}-[Nle][4Pal][Pip(4-aza)][Trp(7-aza)][dPro(cis-4-NH2)]N[4Pal][Trp(7-Cl)][αMeS][Phe(4-CONH2)]Y[Sar][Trp(βS-Me,7-OMe)]C-NH2; thioether N-14) | 1.6 nM |
| CCCC[C@@H]1NC(=O)CSC[C@@H](C(N)=O)NC(=O)[C@H]([C@@H](C)c2c[nH]c3c(OC)cccc23)NC(=O)CN(C)C(=O)[C@H](Cc2ccc(O)cc2)NC(=O)[C@H](Cc2ccc(C(=O)O)cc2)NC(=O)[C@](C)(CO)NC(=O)[C@H](Cc2c[nH]c3c(Cl)cccc23)NC(=O)[C@H](Cc2ccncc2)NC(=O)[C@H](CC(N)=O)NC(=O)[C@H](CCC(=O)O)N(C)C(=O)[C@H](Cc2c[nH]c3ncccc23)NC(=O)[C@H](CO)NC(=O)[C@H]([C@H](O)c2ccccc2)NC1=O [SEQ ID NO. 259] ({CH2CO}-[Nle][Phe(3R-OH)]S[Trp(7-aza)][NMeE]N[4Pal][Trp(7-Cl)][αMeS][Phe(4-COOH)]Y[Sar][Trp(βS-Me,7-OMe)]C-NH2; thioether N-14) | 1.9 nM |
| CCCC[C@@H]1NC(=O)[C@@H]2CC[C@@H](C2)NC(=O)[C@H]([C@@H](C)c2c[nH]c3c(OC)cccc23)NC(=O)CN(C)C(=O)[C@H]([C@H](O)c2ccc(C(=O)O)cc2)NC(=O)[C@H](Cc2ccc(C(N)=O)cc2)NC(=O)[C@](C)(CO)NC(=O)[C@H](Cc2c[nH]c3c(Cl)cccc23)NC(=O)[C@H](Cc2ccncc2)NC(=O)[C@H](CC(N)=O)NC(=O)[C@H]2C[C@H](O)CN2C(=O)[C@H](Cc2c[nH]c3ccccc23)NC(=O)[C@@H]2CC[C@@H](O)CN2C(=O)[C@H](Cc2ccncc2)NC1=O [SEQ ID NO. 188] (cyclo([4Pal][Trp(7-Cl)][αMeS][Phe(4-CONH2)][X24][Sar][Trp(βS-Me,7-OMe)][X1][Nle][4Pal][Pip(5R-OH)]W[dHyp]N)) | 0.8 nM |
| CN1CC(=O)N[C@@H](Cc2c[nH]c3ccccc23)C(=O)N[C@H](C(N)=O)CSCC(=O)N[C@@H](CCCCN)C(=O)N[C@@H](Cc2ccc(O)cc2)C(=O)N[C@@H](CO)C(=O)N[C@@H](Cc2c[nH]c3ccccc23)C(=O)N2CCC[C@@H]2C(=O)N[C@@H](CCC(N)=O)C(=O)N[C@@H](Cc2ccncc2)C(=O)N[C@@H](Cc2c[nH]c3ccccc23)C(=O)N[C@@](C)(CO)C(=O)N[C@@H](Cc2ccc(C(=O)O)cc2)C(=O)N[C@@H](Cc2ccc(O)cc2)C1=O [SEQ ID NO. 242] ({CH2CO}-KYSW[dP]Q[4Pal]W[αMeS][Phe(4-COOH)]Y[Sar]WC-NH2; thioether N-14) | 3 nM |
| CCCC[C@@H]1NC(=O)CSC[C@@H](C(N)=O)NC(=O)[C@H]([C@@H](C)c2c[nH]c3c(OC)cccc23)NC(=O)CN(C)C(=O)[C@H](Cc2ccc(O)cc2)NC(=O)[C@H](Cc2ccc(C(=O)O)cc2)NC(=O)[C@](C)(CO)NC(=O)[C@H](Cc2c[nH]c3c(Cl)cccc23)NC(=O)[C@H](Cc2ccncc2)NC(=O)[C@H](CC(N)=O)NC(=O)CN(CCCC(=O)O)C(=O)[C@H](Cc2c[nH]c3ncccc23)NC(=O)[C@@H]2CCCCN2C(=O)[C@H](Cc2ccncc2)NC1=O [SEQ ID NO. 157] ({CH2CO}-[Nle][4Pal][Pip][Trp(7-aza)][Gly(N(CH2)3COOH)]N[4Pal][Trp(7-Cl)][αMeS][Phe(4-COOH)]Y[Sar][Trp(βS-Me,7-OMe)]C-NH2; thioether N-14) | 4 nM |
